Laboratory results as given in patent US20150273057A1, “Combination” (GLAXOSMITHKLINE LLC, priority 2012, published 2015).

Experiments:
Test in all cases: Cell growth inhibition assay (Cell Titer Glo, 7 days)
Format in all cases: cell-based, Human
[1] = system: A375; conditions: A375 melanoma line, relative to vehicle (DMSO)
Description: (§1) Human colon tumor lines, Colo-205, HT-29, RKO, SW1417, LS411N and human melanoma line A375 were from ATCC. All lines were cultured in RPMI 1640 medium containing 10% fetal bovine serum (FBS).
(§2) All cells were cultured for a minimum of 72 hours prior to cell plating. Cells were assayed in a 96-well tissue culture plate (NUNC 136102) of RPMI medium containing 10% FBS for all cells at 500 cells per well. […] ATP levels were determined by adding Cell Titer Glo® (Promega) according to the manufacturer's protocol. Briefly, Cell Titer Glo0 was added to each plate, incubated for 30 minutes then luminescent signal was read on the SpectraMax L plate reader with a 0.5 sec integration time.
(§3) Inhibition of cell growth was estimated after treatment with compound or combination of compounds for 7 days and comparing the signal to cells treated with vehicle (DMSO). Cell growth was calculated relative to vehicle (DMSO) treated control wells.

[2] = system: LS411N; conditions: LS411N BRAF V600E mutant CRC line, relative to vehicle (DMSO)
Description: as §1, §2, §3

[3] = system: RKO; conditions: RKO BRAF V600E mutant CRC line, relative to vehicle (DMSO)
Description: as §1, §2, §3

[4] = system: SW1417; conditions: SW1417 BRAF V600E mutant CRC line, relative to vehicle (DMSO)
Description: as §1, §2, §3

[5] = system: HT-29; conditions: HT-29 BRAF V600E mutant CRC line, relative to vehicle (DMSO)
Description: as §1, §2, §3

[6] = system: Colo-205; conditions: Colo-205 BRAF V600E mutant CRC line, relative to vehicle (DMSO)
Description: as §1, §2, §3

SMILES | cell growth inhibition, agent alone [1] | cell growth inhibition, agent alone [2] | cell growth inhibition, agent alone [3] | cell growth inhibition, agent alone [4] | cell growth inhibition, agent alone [5] | cell growth inhibition, agent alone [6]
CC(=O)Nc1cccc(-n2c(=O)n(C3CC3)c(=O)c3c(Nc4ccc(I)cc4F)n(C)c(=O)c(C)c32)c1 [Compound A, N-{3-[3-cyclopropyl-5-(2-fluoro-4-iodo-phenylamino)6,8-dimethyl-2,4,7-trioxo-3,4,6,7-tetrahydro-2H-pyrido[4,3-d]pyrimidin-1-yl]phenyl}acetamide] | sensitive | sensitive | resistant | resistant | sensitive | sensitive
CC(C)(C)c1nc(-c2cccc(NS(=O)(=O)c3c(F)cccc3F)c2F)c(-c2ccnc(N)n2)s1 [Compound B, N-{3-[5-(2-Amino-4-pyrimidinyl)-2-(1,1-dimethylethyl)-1,3-thiazol-4-yl]-2-fluorophenyl}-2,6-difluorobenzenesulfonamide] | sensitive | sensitive | resistant | resistant | sensitive | sensitive
C#Cc1cccc(Nc2ncnc3cc(OCCOC)c(OCCOC)cc23)c1 [erlotinib, reference compound] | inactive | inactive | inactive | inactive | inactive | inactive
